Values joined by “and” are separate entries in the source; they are usually repeats but may differ in a detail not shown here. Equal entries are not always repeated. Where two headings read alike, the source gives them in different places.
What was measured:
[1] = even in the mixed solvent of water and organic reagent; cited from earlier work
[2] = In vivo bioconversion of CBT succinate in 50% PEG300 formulation, IV, mouse plasma by LC-MS/MS; parameters: species or system ICR male mice; settings: 15 mg/kg IV
Procedure: The bioanalysis results are tabulated as Tables 1 to 3 below. The values of mean and standard deviation (SD) are calculated. BLOQ means “below the limit of quantification”, and N/A means “not available”. Normal saline used herein is 0.90% sodium chloride aqueous solution.
C0: Initial concentration; • 3. […] AUC/D: AUC divided by dose; • 6.

[3] = Hydrolysis of CBT succinate dissolved in the aqueous preclinical formulation; assay type: physicochemical; settings: 50% PEG300 in normal saline
[4] = Saturation test of CBT succinate-SBECD (1:2.2), solubility; assay type: physicochemical; settings: aqueous buffer, thermodynamic from solid, excess complex dissolved by 20 mM pH 8.0 phosphate buffer, read-out: CBT succinate water solubility
Source text: For the CBT succinate-SBECD (1:2.2), a saturation test was further carried out.

[5] = analyte Cabazitaxel in mouse plasma, CBT succinate in 50% PEG300 formulation, time 24 h
[6] = male, ICR, mouse plasma, CBT succinate in 50% PEG300 formulation
[7] = mouse plasma, CBT succinate in 50% PEG300 formulation
[8] = mouse plasma, CBT succinate in 50% PEG300 formulation, time 4 h
[9] = mouse plasma, CBT succinate in 50% PEG300 formulation, time 8 h
[10] = mouse plasma, CBT succinate in 50% PEG300 formulation, time 24 h

CO[C@H]1C(=O)[C@]2(C)[C@@H](OC)C[C@H]3OC[C@@]3(OC(C)=O)[C@H]2[C@H](OC(=O)c2ccccc2)[C@]2(O)C[C@H](OC(=O)[C@H](O)[C@@H](NC(=O)OC(C)(C)C)c3ccccc3)C(C)=C1C2(C)C [cabazitaxel]
solubility [1]: almost insoluble

CO[C@H]1C(=O)[C@]2(C)[C@@H](OC)C[C@H]3OC[C@@]3(OC(C)=O)[C@H]2[C@H](OC(=O)c2ccccc2)[C@]2(O)C[C@H](OC(=O)[C@H](OC(=O)CCC(=O)O)[C@@H](NC(=O)OC(C)(C)C)c3ccccc3)C(C)=C1C2(C)C [CBT succinate, cabazitaxel succinate]
CBT concentration (individual mouse) ([2]; analyte Cabazitaxel in mouse plasma, CBT succinate in 50% PEG300 formulation, time 8 h, 15 mg/kg): BLOQ
CBT concentration (individual mouse) [2, 5]: BLOQ
CBT concentration, Mean [2, 5]: BLOQ
concentration at 0.083 h ([2]; male, ICR, mouse, plasma, iv, 15 mg/kg, mouse plasma, CBT succinate in 50% PEG300 formulation, time 0.083 h, read-out: CBT succinate concentration (individual mouse)): 5980 ng/mL
concentration at 0.083 h ([2]; male, ICR, mouse, plasma, iv, 15 mg/kg, mouse plasma, CBT succinate in 50% PEG300 formulation, time 0.083 h, read-out: CBT succinate concentration, Mean): 5750 ng/mL
concentration at 0.167 h ([2]; male, ICR, mouse, plasma, iv, 15 mg/kg, mouse plasma, CBT succinate in 50% PEG300 formulation, time 0.167 h, read-out: CBT succinate concentration (individual mouse)): 3100 ng/mL
concentration at 0.167 h ([2]; male, ICR, mouse, plasma, iv, 15 mg/kg, mouse plasma, CBT succinate in 50% PEG300 formulation, time 0.167 h, read-out: CBT succinate concentration, Mean): 3030 ng/mL
concentration at 0.5 h ([2]; male, ICR, mouse, plasma, iv, 15 mg/kg, mouse plasma, CBT succinate in 50% PEG300 formulation, time 0.5 h): 386 ng/mL
concentration at 1 h ([2]; male, ICR, mouse, plasma, iv, 15 mg/kg, mouse plasma, CBT succinate in 50% PEG300 formulation, time 1 h): 50 ng/mL
concentration at 2 h ([2]; male, ICR, mouse, plasma, iv, 15 mg/kg, mouse plasma, CBT succinate in 50% PEG300 formulation, time 2 h, read-out: CBT succinate concentration (individual mouse)): 15 ng/mL
concentration at 2 h ([2]; male, ICR, mouse, plasma, iv, 15 mg/kg, mouse plasma, CBT succinate in 50% PEG300 formulation, time 2 h, read-out: CBT succinate concentration, Mean): 15 ng/mL
C0 [2, 6]: 10800 ng/mL
MRT [2, 6]: 9.6 min
AUC(0-inf) ([2]; male, ICR, mouse plasma, CBT succinate in 50% PEG300 formulation, read-out: AUCInf of CBT Succinate): 1770 ng·h/mL
AUC(0-t) ([2]; male, ICR, mouse plasma, CBT succinate in 50% PEG300 formulation, read-out: AUClast of CBT Succinate): 1770 ng·h/mL
clearance ([2]; male, ICR, mouse plasma, CBT succinate in 50% PEG300 formulation, read-out: CL of CBT Succinate): 141 mL/min/kg
Vd ([2]; male, ICR, mouse plasma, CBT succinate in 50% PEG300 formulation, read-out: Vss of CBT Succinate): 1.38 L/kg
half-life ([2]; male, ICR, mouse plasma, CBT succinate in 50% PEG300 formulation, read-out: t1/2 of CBT Succinate (converted)): 13.8 min
bioconversion of CBT succinate to CBT ([2]; mice, 50% PEG300 formulation): very rapidly
AUC Extr of CBT Succinate [2, 7]: 0.28%
AUC/D of CBT Succinate [2, 7]: 118 kg·ng·h/mL/mg
CBT succinate concentration (individual mouse) ([2]; mouse plasma, CBT succinate in 50% PEG300 formulation, time 0.083 h, 15 mg/kg): 5803 ng/mL and 5480 ng/mL
CBT succinate concentration (individual mouse) ([2]; mouse plasma, CBT succinate in 50% PEG300 formulation, time 0.167 h, 15 mg/kg): 3144 ng/mL and 2857 ng/mL
CBT succinate concentration (individual mouse) ([2]; mouse plasma, CBT succinate in 50% PEG300 formulation, time 0.5 h, 15 mg/kg): 541 ng/mL and 397 ng/mL and 221 ng/mL
CBT succinate concentration (individual mouse) ([2]; mouse plasma, CBT succinate in 50% PEG300 formulation, time 1 h, 15 mg/kg): 25 ng/mL and 51 ng/mL and 73 ng/mL
CBT succinate concentration (individual mouse) ([2]; mouse plasma, CBT succinate in 50% PEG300 formulation, time 2 h, 15 mg/kg): BLOQ
CBT succinate concentration (individual mouse) [2, 8]: BLOQ
CBT succinate concentration, Mean [2, 8]: BLOQ
CBT succinate concentration (individual mouse) [2, 9]: BLOQ
CBT succinate concentration, Mean [2, 9]: BLOQ
CBT succinate concentration (individual mouse) [2, 10]: BLOQ
CBT succinate concentration, Mean [2, 10]: BLOQ
hydrolysis when dissolved in the aqueous preclinical formulation [3]: prone to hydrolysis
solubility [4]: 120 µg/mL
